Assay results taken from patent US20250019352A1, “PHARMACOLOGICAL AGENTS FOR TREATING OPHTHALMIC DISEASES” (Plex Pharmaceuticals, Inc., priority 2021, published 2025).
pEC50: −log10 of the molar value.

Assays:
[1] = target: T1, recombinant human hAAC (human αA-crystallin) (Homo sapiens, UniProt P02489); test: Protection from Ca+2 and UVC induced aggregation of recombinant human alpha-A crystallin (absorbance / SDS-PAGE); assay type: biochemical; conditions: for Gel: SDS-PAGE, unaggregated AAC after UVC, compounds tested at 500 μM; for pEC50: concentration needed to prevent 50% of hAAC from forming HMW aggregates when exposed to UVC in presence of Ca+2, calculated using SDS-PAGE, read-out: EC50 Biochemical
T1 sequence (P02489 1-173): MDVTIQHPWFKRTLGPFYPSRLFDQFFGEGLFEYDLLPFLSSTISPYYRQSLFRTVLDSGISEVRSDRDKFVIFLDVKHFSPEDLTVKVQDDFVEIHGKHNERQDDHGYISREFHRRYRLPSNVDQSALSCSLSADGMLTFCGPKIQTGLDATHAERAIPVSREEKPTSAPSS
Experimental: FIG. 2A: SDS-PAGE showing the protection against UVC induced aggregation of human α-A-crystallin (hAAC) by disulfide and related SDMs. Shown are also efficacy of non-related SDMs. The compounds were tested at 500 μM concentration.
The potency of compounds to provide protection from Ca^+2 and UVC induced aggregation of alpha-A crystalline (ACC) was measured by monitoring the effect of Ca^+2 and UVC on recombinant human hAAC. hAAC forms HMW aggregates when exposed to UVC radiation in the presence of 10 mM Ca^+2. The aggregates lead to increased absorbance. Stock compound solutions (made in DMSO) were added to recombinant hAAC (100 ug/ml) at desired concentrations. The hAAC, with the added compound, was incubated at room temperature for 1 hour, followed by addition of 10 μl of 200 mM CaCl2) and further incubation for 5 minutes. Then, absorbance was recorded at 400 nm (T=0 Minute) followed by exposure to UVC (254 nm, 480 mJ/cm^2 per minute). Absorbance was measured again at 15 and 30 minutes. To control for compound related effects, assays were performed with or without AAC in triplicate. Percent protection or change in fold-decrease in aggregation were computed using the measured differences in absorbance. DMSO was used as control. EC50 values were calculated using the SDS-PAGE, which is defined as the concentration of SMD needed to prevent 50% of hAAC from forming HMW aggregates when exposed to UVC in presence of Ca^+2 [FIGS. 2A-2B].

porcine lenses = test: Ex vivo lens culture: protection from UV-induced opacification; conditions: porcine lenses cultured ex vivo
Text: To predict whether SMDs could prevent opacification in animal models and ultimately in human patients, we assessed their ability to protect intact lenses cultured ex vivo from UV-induced opacification. As fresh human lenses are difficult to obtain, porcine lenses were used for the ex vivo studies. Porcine lenses are easy to acquire (Sierra for Medical Science, Inc., Whittier, CA) and have been used previously in ex vivo models of Presbyopia. As predicted by our biochemical assays, SMDs prevents UV-induced opacification of porcine lenses ex vivo.

Row | Structure (SMILES) | Gel [1] | pEC50 [1] | Ex-vivo (porcine lenses)
1 | O=C(O)c1ccc(SSc2ccc(C(=O)O)cc2)cc1 [Compound 1] | ++ (″++″ score = >50% unaggregated AAC) |  | 
2 | Nc1ccc(SSc2ccc(N)cc2)cc1 [Compound 2] | ++ (″++″ score = >50% unaggregated AAC) |  | 
3 | O=C(O)c1ccccc1SSc1ccccc1C(=O)O [Compound 4] | ++ (″++″ score = >50% unaggregated AAC) | 3.40 | 
4 | Nc1cccc(SSc2cccc(N)c2)c1 [Compound 5] | ++ (″++″ score = >50% unaggregated AAC) |  | 
5 | Fc1ccccc1SSc1ccccc1F [Compound 7] | + (″+″ score = >20% to 50% unaggregated AAC) |  | 
6 | CN/C(=C\[N+](=O)[O-])NCCSCc1c[nH]c(CN(C)C)n1 [Compound 11] | ++ (″++″ score = >50% unaggregated AAC) | 3.31 | ++ (″++″ score = >50% unaggregated AAC)
7 | O=C(O)c1cc(SSc2ccc([N+](=O)[O-])c(C(=O)O)c2)ccc1[N+](=O)[O-] [Compound 13] | ++ (″++″ score = >50% unaggregated AAC) | 3.72 | ++ (″++″ score = >50% unaggregated AAC)
8 | O=[N+]([O-])c1cc(C(F)(F)F)ccc1SSc1ccc(C(F)(F)F)cc1[N+](=O)[O-] [Compound 14] | + (″+″ score = >20% to 50% unaggregated AAC) |  | 
9 | COc1ccc(SSc2ccc(OC)cc2)cc1 [Compound 15] | + (″+″ score = >20% to 50% unaggregated AAC) |  | 
10 | CC(=O)Nc1ccc(SSc2ccc(NC(C)=O)cc2)cc1 [Compound 16] | + (″+″ score = >20% to 50% unaggregated AAC) |  | 
11 | O=[N+]([O-])c1cc(S(=O)(=O)C(F)(F)C(F)(F)F)ccc1SSc1ccc(S(=O)(=O)C(F)(F)C(F)(F)F)cc1[N+](=O)[O-] [Compound 18] | + (″+″ score = >20% to 50% unaggregated AAC) |  | 
12 | COC(=O)c1ccccc1SSc1ccccc1C(=O)OC [Compound 21] | + (″+″ score = >20% to 50% unaggregated AAC) |  | 
13 | CCCNS(=O)(=O)c1cccc(C(C)=O)c1 [Compound 22] | + (″+″ score = >20% to 50% unaggregated AAC) |  | 
14 | O=C(O)CCNS(=O)(=O)c1ccc(F)cc1 [Compound 23] | + (″+″ score = >20% to 50% unaggregated AAC) |  | 
15 | CC(C)NS(=O)(=O)c1cccc(C(=O)O)c1 [Compound 24] | + (″+″ score = >20% to 50% unaggregated AAC) |  | ++ (″++″ score = >50% unaggregated AAC)
16 | O=C(O)c1cccc(S(=O)(=O)NC2CC2)c1 [Compound 25] | + (″+″ score = >20% to 50% unaggregated AAC) |  | ++ (″++″ score = >50% unaggregated AAC)
17 | O=C(O)c1cc(S(=O)(=O)N2CCCC2)ccc1O [Compound 26] | ++ (″++″ score = >50% unaggregated AAC) |  | 
18 | O=C(O)c1ccc(S(=O)(=O)N2CCCCC2)cc1 [Compound 27] | + (″+″ score = >20% to 50% unaggregated AAC) |  | 
19 | O=C(O)c1cccc(S(=O)(=O)N2CCCCC2)c1 [Compound 28] | + (″+″ score = >20% to 50% unaggregated AAC) |  | 
20 | O=C(O)c1cccc(S(=O)(=O)N2CCOCC2)c1 [Compound 29] | + (″+″ score = >20% to 50% unaggregated AAC) |  | 

Row | Structure (SMILES) | Gel [1] | pEC50 [1] | Ex-vivo (porcine lenses)
21 | O=C(O)Cc1ccc(S(=O)(=O)N2CCOCC2)s1 [Compound 30] | ++ (″++″ score = >50% unaggregated AAC) |  | 
22 | CNC(C[N+](=O)[O-])NCCSCc1ccc(CN(C)C)o1.Cl (centres unmarked) [Compound 31] | + (″+″ score = >20% to 50% unaggregated AAC) |  | 
23 | CN=C(NC#N)NCCSCc1csc(N=C(C)C)n1 [Compound 32] | ++ (″++″ score = >50% unaggregated AAC) | 3.39 | 
24 | Cc1cc(N2CCSSCC2)ncc1[N+](=O)[O-] [Compound 34] | ++ (″++″ score = >50% unaggregated AAC) |  | 
25 | Cc1ccnc(N2CCSSCC2)c1[N+](=O)[O-] [Compound 35] | ++ (″++″ score = >50% unaggregated AAC) |  | 
26 | Nc1nc(N2CCSSCC2)ncc1[N+](=O)[O-] [Compound 36] | + (″+″ score = >20% to 50% unaggregated AAC) |  | 
27 | O=C1NC(=O)c2cc(NC(=O)N3CCSSCC3)ccc21 [Compound 37] | ++ (″++″ score = >50% unaggregated AAC) | 3.43 | 
28 | Cc1nn(CCC(=O)N2CCSSCC2)c(C)c1[N+](=O)[O-] [Compound 38] | + (″+″ score = >20% to 50% unaggregated AAC) |  | 
29 | O=C(CSSCC(=O)Nc1cccc([N+](=O)[O-])c1)Nc1cccc([N+](=O)[O-])c1 [Compound 40] | + (″+″ score = >20% to 50% unaggregated AAC) | 3.44 | 
30 | Cc1ccc(NC(=O)C(C)SSC(C)C(=O)Nc2ccc(C)c(F)c2)cc1F (centres unmarked) [Compound 41] | + (″+″ score = >20% to 50% unaggregated AAC) |  | 
31 | O=C(O)c1nsnc1NCCSSCCNc1nsnc1C(=O)O [Compound 42] | + (″+″ score = >20% to 50% unaggregated AAC) |  | 
32 | O=C(O)CCC(=O)Nc1ccc(SSc2ccc(NC(=O)CCC(=O)O)cc2)cc1 [Compound 43] | ++ (″++″ score = >50% unaggregated AAC) |  | 
33 | O=C(CSSCC(=O)Nc1ccc2ccccc2c1)Nc1ccc2ccccc2c1 [Compound 44] | ++ (″++″ score = >50% unaggregated AAC) |  | 
34 | O=C(NCCOc1ccccc1)SSC(=O)NCCOc1ccccc1 [Compound 45] | + (″+″ score = >20% to 50% unaggregated AAC) |  | 
35 | Cc1ncc(CSSCc2cnc(C)c(O)c2CO)c(CO)c1O [Compound 46] | + (″+″ score = >20% to 50% unaggregated AAC) |  | 
36 | O=C(CSSCC(=O)Nc1cccc2ccccc12)Nc1cccc2ccccc12 [Compound 48] | + (″+″ score = >20% to 50% unaggregated AAC) |  | 
37 | N#Cc1cc(C(=O)O)c(O)nc1SSc1nc(O)c(C(=O)O)cc1C#N [Compound 50] | + (″+″ score = >20% to 50% unaggregated AAC) |  | 
38 | CC(C)Cc1ccccc1NC(=O)CSSCC(=O)Nc1ccccc1CC(C)C [Compound 51] | ++ (″++″ score = >50% unaggregated AAC) |  | 
39 | CCC1c2ccccc2-c2cc(NC(=O)CSSCC(=O)Nc3ccc4c(c3)c3ccccc3n4CC)ccc21 (centres unmarked) [Compound 54] | ++ (″++″ score = >50% unaggregated AAC) |  | 
40 | COc1ccccc1NC(=O)CSSCC(=O)Nc1ccccc1OC [Compound 55] | ++ (″++″ score = >50% unaggregated AAC) |  | 
